The record followed here is patent publication US20120122679A1, “MESOIONIC PESTICIDES” (E. I. Du Pont De Nemours and Company, priority 2009, published 2012).

Molecules are shown by their SMILES.

The data set relates to green peach aphid (Myzus persicae). The data set is described as follows: Test F: control of green peach aphid on radish plant, contact and/or systemic. In kind it is in vivo. The conditions noted are these: sprayed at 50 ppm; assessed after 6 days. As for the experimental part: Test compounds were formulated using a solution containing 10% acetone, 90% water and 300 ppm X-77® Spreader Lo-Foam Formula non-ionic surfactant containing alkylarylpolyoxyethylene, free fatty acids, glycols and isopropanol (Loveland Industries, Inc. Greeley, Colorado, USA). The formulated compounds were applied in 1 mL of liquid through a SUJ2 atomizer nozzle with ⅛ JJ custom body (Spraying Systems Co. Wheaton, Ill., USA) positioned 1.27 cm (0.5 inches) above the top of each test unit. Test compounds were sprayed at 250 and/or 50 ppm, and replicated three times. After spraying of the formulated test compound, each test unit was allowed to dry for 1 h and then a black, screened cap was placed on top. The test units were held for 6 days in a growth chamber at 25° C. and 70% relative humidity. Plant feeding damage was then visually assessed based on foliage consumed.
For evaluating control of green peach aphid (Myzus persicae) through contact and/or systemic means, the test unit consisted, of a small open container with a 12-15-day-old radish plant inside. […]
Test compounds were formulated and sprayed at 250 ppm and/or 50 ppm as described for Test A. The applications were replicated three times. […] Each test unit was then visually assessed for insect mortality.

On to `O=c1c(SC(F)(F)F)c([O-])[n+](Cc2cnc(Cl)s2)c2ccccn12` [Compound 102], for which the “mortality (at least 80% mortality)” value was “at least 80%”.
